This note sets out measurements from patent publication US4873236A, “Condensed diazepinones, processes for preparing them and pharmaceutical compositions containing these compounds” (Dr. Karl Thomae GmbH, priority 1986, dated 1989).

pIC50: −log10 of the molar value. A value given as a limit tells only on which side of the number the result lay.

For assay [1], the target named is T1, muscarinic receptors, heart atrium (Rattus norvegicus, UniProt P10980).
T1 construct: from tissue; host or cells: heart (atrium, ventricle) of female rats, labelled in vivo
T1 sequence (P10980 1-466): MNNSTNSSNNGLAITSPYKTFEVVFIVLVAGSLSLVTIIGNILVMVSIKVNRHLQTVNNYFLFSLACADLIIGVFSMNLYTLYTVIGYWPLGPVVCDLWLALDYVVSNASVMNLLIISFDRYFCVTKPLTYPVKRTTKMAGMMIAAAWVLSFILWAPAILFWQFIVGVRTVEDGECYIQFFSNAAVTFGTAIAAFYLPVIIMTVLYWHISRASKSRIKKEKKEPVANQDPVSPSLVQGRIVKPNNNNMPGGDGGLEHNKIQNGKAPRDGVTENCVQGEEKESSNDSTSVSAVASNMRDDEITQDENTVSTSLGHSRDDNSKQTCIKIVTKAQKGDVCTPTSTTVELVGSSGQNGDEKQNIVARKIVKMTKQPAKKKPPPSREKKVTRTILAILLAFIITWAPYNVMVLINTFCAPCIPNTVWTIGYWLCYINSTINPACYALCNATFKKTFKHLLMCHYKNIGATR
As to the kind of experiment: Receptor bonding test in vivo, heart atrium (3H-NMS). To be noted: for potency in the heart (in words): Table V, atrium/ventricle, vs comparison substances; for ED50: iv, 0.5 h, i.v., 113 ng/kg 3H-NMS, read-out: ID50 Heart Atrium. Also noted: species or system female rats. The procedure: (§1) For these experiments, female rats with a body weight of about 200 g were used. Before the start of the test the animals were anaesthetised with a dosage of 1.25 g/kg of urethane. The animals were each given the prescribed dosage of test substance by intravenous injection. After 15 minutes, 113 ng/kg of ^3 H-N-methylscopolamine (^3 H-NMS) were administered by the same route. After another 15 minutes the animals were killed and the heart, bronchi and lachrymal glands were removed. These organs were dissolved in Soluene R and the radioactivity was determined. The measurements were assumed to be total bonding. […] ID50 values were determined for the individual organs using these tests.

Assay [2] addresses T2, muscarinic receptors, submandibular gland (Rattus norvegicus, UniProt P08483).
T2 construct: After removal of the heart and submandibular gland; from tissue; host or cells: submandibular gland of male Sprague-Dawley rats, homogenate
As to the kind of experiment: Receptor bonding test in vitro, submandibular gland (displacement of 3H-N-methylscopolamine). To be noted: 0.3 nmolar 3H-NMS, 30° C., 45 min. Type of assay: binding, Sprague-Dawley rats.

The next assay concerns the target T3, M2 (vagal bradycardia) (Rattus norvegicus, UniProt P10980).
T3 construct: The bradycardia produced by vagus stimulation; from tissue; host or cells: whole animal (male THOM rats), heart
T3 sequence (P10980 1-466): T1 sequence (P10980 1-466)
As to the kind of experiment: M1/M2 selectivity in the rat: inhibition of vagally stimulated bradycardia (M2). Type of assay: in vivo, male THOM rats. The settings on record: iv, 5 min, i.v., 50% reduction in vagal bradycardia, read-out: M2 activity (rat) ED50. The procedure: The method used was described by Hammer and Giachetti (Life Sciences 31, 2991-2998 (1982)). 5 minutes after intravenous injection of increasing doses of the substance, either the right vagus was electrically stimulated (frequency: 25 Hz; pulse width: 2 ms; duration of stimulus: 30 s; number of volts: supramaximal) or 0.3 mg/kg of McN-A-343 was injected intravenously into male THOM rats. The bradycardia produced by vagus stimulation and the increase in blood pressure produced by McN-A-343 were measured.

For assay [3], the target named is T4, muscarinic receptors, heart ventricle (Rattus norvegicus, UniProt P10980).
T4 construct: the heart, bronchi and lachrymal glands were removed; from tissue; host or cells: heart (atrium, ventricle) of female rats, labelled in vivo
T4 sequence (P10980 1-466): T1 sequence (P10980 1-466)
As to the kind of experiment: Receptor bonding test in vivo, heart ventricle (3H-NMS). Also noted: species or system female rats. The settings on record: iv, 0.5 h, in vivo binding, i.v., 113 ng/kg 3H-NMS, read-out: ID50 Heart Ventricle. The procedure: as §1

Assay [4] addresses T5, muscarinic receptors, lachrymal glands (Rattus norvegicus, UniProt P08483).
T5 construct: from tissue; host or cells: lachrymal glands of female rats, labelled in vivo
Description: Receptor bonding test in vivo, lachrymal glands (3H-NMS). The arrangement: species or system female rats. To be noted: iv, 0.5 h, in vivo binding, i.v., 113 ng/kg 3H-NMS, read-out: ID50 Lachrymal glands. The procedure: as §1

T5 sequence (P08483 whole entry): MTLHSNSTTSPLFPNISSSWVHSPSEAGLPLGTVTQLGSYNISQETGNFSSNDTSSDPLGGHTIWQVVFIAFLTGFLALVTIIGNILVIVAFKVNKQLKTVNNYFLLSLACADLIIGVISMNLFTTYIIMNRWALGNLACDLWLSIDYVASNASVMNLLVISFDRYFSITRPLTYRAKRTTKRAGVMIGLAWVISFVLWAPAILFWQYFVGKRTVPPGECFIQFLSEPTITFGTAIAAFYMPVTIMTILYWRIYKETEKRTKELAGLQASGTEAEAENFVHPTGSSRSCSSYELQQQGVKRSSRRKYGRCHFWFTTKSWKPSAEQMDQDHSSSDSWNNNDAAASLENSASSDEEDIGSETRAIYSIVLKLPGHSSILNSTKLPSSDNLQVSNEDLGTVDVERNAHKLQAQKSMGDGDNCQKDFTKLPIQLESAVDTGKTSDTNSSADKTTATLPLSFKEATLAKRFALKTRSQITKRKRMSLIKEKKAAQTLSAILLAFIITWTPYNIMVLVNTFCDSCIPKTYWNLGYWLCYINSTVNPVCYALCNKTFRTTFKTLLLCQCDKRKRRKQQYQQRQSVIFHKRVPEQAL
T2 sequence (P08483 whole entry): as above

For `CCN(CC)CC1CCCCN1CCNC(=O)N1c2cc(Cl)ccc2C(=O)Nc2cccnc21` (centres unmarked) [Substance C, 9-chloro-11-[[[2-[2-[(diethylamino)methyl]-piperidin-1-yl]ethyl]amino]carbonyl]-5,11-dihydro-6H-pyrido[2,3-b][1,4]benzodiazepin-6-one], the “potency in the heart (in words)” value in assay [1] is “decisive improvement in potency compared with substances Y and Y in the heart”. The ED50 in assay [1] (in vivo binding, rat) stood at 0.2 mg/kg; at M2 (vagal bradycardia), 0.058 mg/kg; in assay [3], 0.09 mg/kg. The pIC50 in assay [2] is 6.82.

With `CCCN(CCC)CC1CCCCN1CCNC(=O)N1c2ccccc2C(=O)Nc2cccnc21` (centres unmarked) [Substance A, 5,11-dihydro-11-[[[2-[2-[(dipropylamino)methyl]-piperidin-1-yl]ethyl]amino]carbonyl]-6H-pyrido[2,3-b][1,4]benzodiazepin-6-one], the “potency in the heart (in words)” value in assay [1] is “decisive improvement in potency compared with substances Y and Y in the heart”. Besides, the ED50 was 0.2 mg/kg in assay [1] (in vivo binding, rat); 0.019 mg/kg on M2 (vagal bradycardia); 0.15 mg/kg in assay [3]; above 10 mg/kg in assay [4].

On to `CCN(CC)CC1CCCCN1CCNC(=O)N1c2ccccc2NC(=O)c2csc(C)c21` (centres unmarked) [Substance B, 4-[[[2-[2-[(diethylamino)methyl]-piperidin-1-yl]ethyl]amino]carbonyl]-4,9-dihydro-3-methyl-10H-thieno[3,4-b][1,5]benzodiazepin-10-one], for which, in assay [1], the “potency in the heart (in words)” value was “decisive improvement in potency compared with substances Y and Y in the heart”. For the same compound, the “Ratio of ID50 lachrymal gland to ID50 atrium” value in assay [1] (in vivo binding, rat, 30 min) is on record as above 40. The ED50 in assay [1] (in vivo binding, rat) is 0.025 mg/kg; on M2 (vagal bradycardia), 0.008 mg/kg; in assay [3] it was 0.006 mg/kg; in assay [4] it was above 1 mg/kg. Besides, the pIC50 in assay [2] was 7.82.
